The text below walks through data of ChEMBL document CHEMBL3045587, “Oxidation of di- and polyamines: in vitro effect of amino aldehydes on the vitality of Leishmania promastigotes” (Med Chem Res, 2010).

Each structure is given as a SMILES string. Activity calls are given as the source filed them. The rule behind the calls is not given here.

Assay type in all cases: functional, organism-based
Test [1] relates to Leishmania infantum. As to the kind of experiment: Antiparasitic activity against promastigotes of Leishmania infantum MHOM-TN-80-IPT1 assessed as decrease in promastigote vitality at 5 mM by counting chamber.
Test [2] concerns Leishmania infantum. As to the kind of experiment: Antiparasitic activity against promastigotes of Leishmania infantum MHOM-TN-80-IPT1 assessed as decrease in parasite density at 1 to 5 mM measured at 4th and 7th day by microscopic analysis.
Test [3] relates to Leishmania infantum. As to the kind of experiment: Increase in vitality of Leishmania infantum MHOM-TN-80-IPT1 promastigotes at 1 to 5 mM measured at 7th day by microscopic analysis.
Test [4] has as its system Leishmania infantum. As to the kind of experiment: Antiparasitic activity against promastigotes of Leishmania infantum MHOM-TN-80-IPT1 assessed as decrease in parasite vitality at 1 to 5 mM measured at 4th day by microscopic analysis.
In test [5] the test system is Leishmania infantum. As to the kind of experiment: Increase in density of Leishmania infantum MHOM-TN-80-IPT1 promastigotes at 1 to 5 mM measured at 7th day by microscopic analysis.
The subject of test [6] is Leishmania infantum. As to the kind of experiment: Antiparasitic activity against promastigotes of Leishmania infantum MHOM-TN-80-IPT1 assessed as decrease in parasite density at 1 to 5 mM measured at 4th day by microscopic analysis.
For test [7], the system named is Leishmania infantum. As to the kind of experiment: Antiparasitic activity against promastigotes of Leishmania infantum MHOM-TN-80-IPT1 assessed as decrease in parasite density up to 3 mM measured at 4th and 7th day by microscopic analysis.

Take `O=CCCNCCCCNCCC=O`: the inhibition result in the test with Leishmania infantum [1] and in the test with Leishmania infantum [2] was “Active” throughout.

Regarding `NCCCC=O`, the result with Leishmania infantum [3] and in the test with Leishmania infantum [5] was Active. Moreover, the inhibition result with Leishmania infantum [4] and with Leishmania infantum [6] was “Active” each time.

Turning to `NCCCNCCCC=O`, the inhibition entry in the test with Leishmania infantum [7] was “Active”.

Regarding `NCCCCC=O`, the result with Leishmania infantum [3] and in the test on Leishmania infantum [5] was Active. For the same compound, the inhibition result in the test on Leishmania infantum [4] and with Leishmania infantum [6] was “Active” throughout.
